Values after ≈ are worked out from the molar mass of the structure shown.
Assays:
Typhlodromus pyri = experiment: LR50; higher = less toxic; details: not reported; mortality
Canidae = details: oral, Dog Other, body weight
Daphnia magna = details: chronic/long-term; duration: 21 days; reproduction
Coturnix japonica = details: reproduction developmental
Tagia sp. = details: acute; duration: 14 days; mortality
Anas platyrhynchos = details: oral; for LD50: mortality
Apis mellifera = details: acute, mortality
Mus musculus = details: acute; mortality
Colinus virginianus = details: oral; for LD50: mortality
[1] = short-term, duration: 5 days, feed

COc1cc(OC)nc(NC(=O)NS(=O)(=O)c2ncccc2C(=O)N(C)C)n1 [Nicosulfuron]
LR50 (Typhlodromus pyri): 60 g/ha
NOAEL (Canidae; chronic, duration: 1 years): 200 mg/kg-day
NOAEL (Canidae; short-term, duration: 28 days): 200 mg/kg-day
NOAEL (Canidae; subchronic, duration: 90 days): 200 mg/kg-day
NOEC (Daphnia magna): 5.2 mg/L
NOEC (Coturnix japonica): 171 mg/kg-day
LC50 (Tagia sp.): > 1000 mg/kg
NOEL (Anas platyrhynchos; acute, unspecified): 2000 mg/kg-day
LD50 (Anas platyrhynchos; acute, unspecified): > 2000 mg/kg-day
NOEL (Anas platyrhynchos; [1]): 911 mg/kg-day
LD50 (Anas platyrhynchos; [1]): > 911 mg/kg-day
LD50 (Apis mellifera; dermal): 76 µg/piece
LC50 (Apis mellifera; oral, feed): > 1000 µg/piece
LD50 (Mus musculus): > 5000 mg/kg-day
LD50 (Colinus virginianus; acute, duration: 5 days, diet): > 1600 mg/kg-day
NOEL (Colinus virginianus; acute): 2000 mg/kg-day
LD50 (Colinus virginianus; acute): > 2000 mg/kg-day
NOEL (Colinus virginianus; short-term, duration: 5 days, diet): 1600 mg/kg-day
LC50 (Oncorhynchus mykiss; acute, duration: 96 hours, mortality): 65.7 µg/mL (≈ 160 µM)
NOEC (Oncorhynchus mykiss; chronic/long-term, duration: 28 days, growth): 10 mg/L
LD50 (Rattus norvegicus; acute, mortality): > 5000 mg/kg-day
NOAEL (Rattus norvegicus; chronic, duration: 2 years, hematological): 199 mg/kg-day
NOAEL (Rattus norvegicus; reproduction developmental, M): 3860 mg/kg-day
NOAEL (Rattus norvegicus; reproduction developmental, mortality): 4400 mg/kg-day

From EPA's ToxValDB 9.5 (doi:10.2903/j.efsa.2008.120r)
